Each compound was assayed on LNCaP cells (assay: LNCaP cell viability assay (MTS)). Conditions: Homo sapiens, LNCaP, 48 h, LNCaP cell line, 48 hours treatment.
Assay type: cell-based
Experimental: LNCaP cell line was used for the cell viability assay. LNCaP cells were plated in 96-well plates at a density of 5000 cells per well. After 24 hours of plating, the cells were treated with increasing doses of compound 1-100 ranging from 1 μM to 80 μM. Relative cell numbers were analyzed after 48 hours using 3-(4,5-dimethylthiazol-2-yl)-5-(3-carboxymethoxyphenyl)-2-(4-sulfophenyl)-2H-tetrazolium (MTS) assay (Promega) according to the manufacturer's instructions.
The cell viability data was analyzed with GraphPad Prism software. The values were log transformed and analyzed with non-linear regression (curve-fit) using log(inhibitor) vs. response—variable slope (four parameters) and constraining the bottom to equal zero. Unless otherwise indicated, the GI50 values provided in Table 35 correspond to the LNCaP cell viability assays.

Compared with `O=S(=O)(NC1(c2ccc(Cl)c(F)c2)CNC1)c1ccc(OC(F)(F)F)cc1` [Compound 58, N-(3-(4-chloro-3-fluorophenyl)azetidin-3-yl)-4-(trifluoromethoxy)benzenesulfonamide], `O=S(=O)(NC1(c2ccc(Cl)c(F)c2)CCNCC1)c1ccc(OC(F)(F)F)cc1` [Compound 56, N-(4-(4-chloro-3-fluorophenyl)piperidin-4-yl)-4-(trifluoromethoxy)benzenesulfonamide] is 2.1-fold lower in GI50: 23.2 µM for the first, 11 µM for the second.

Going from `O=S(=O)(NC1(c2ccccc2)CCNCC1)c1ccc(OC(F)(F)F)cc1` [Compound 50, N-(4-phenylpiperidin-4-yl)-4-(trifluoromethoxy)benzenesulfonamide] to `O=S(=O)(NC1(c2ccccc2)CCNC1)c1ccc(OC(F)(F)F)cc1` (stereo not drawn) [Compound 36, N-(3-phenylpyrrolidin-3-yl)-4-(trifluoromethoxy)benzene-sulfonamide], the GI50 rises from 23.3 µM to 41.9 µM (1.8-fold).

First: O=S(=O)(NC1(c2ccc(Cl)cc2)CCNCC1)C12CC(C(F)(F)F)(C1)C2 [Compound 98, N-(4-(4-chlorophenyl)piperidin-4-yl)-3-(trifluoromethyl)bicyclo[1.1.1]pentane-1-sulfonamide]
Second: O=S(=O)(NC1(c2ccc(Cl)cc2)CCNCC1)c1ccc(OC(F)(F)F)cc1 [Compound 45, N-(4-(4-chlorophenyl)piperidin-4-yl)-4-(trifluoromethoxy)benzenesulfonamide]
The GI50 of the first is 4.2-fold higher: 46.6 µM for the first, 11 µM for the second.

Going from `O=S(=O)(NC1(c2ccc(Cl)c(Cl)c2)CCNC1)c1ccc(OC(F)(F)F)cc1` (stereo not drawn) [Compound 41, N-(3-(3,4-dichlorophenyl)pyrrolidin-3-yl)-4-(trifluoromethoxy)benzene-sulfonamide] to `O=S(=O)(NC1(c2ccc(Cl)c(Cl)c2)CCNCC1)c1ccc(OC(F)(F)F)cc1` [Compound 49, N-(4-(3,4-dichlorophenyl)piperidin-4-yl)-4-(trifluoromethoxy)benzenesulfonamide], the GI50 falls from 10.4 µM to 6.75 µM (1.5-fold).

`O=S(=O)(NC1(c2ccc(Cl)cc2)CCNC1)c1ccc(OC(F)(F)F)nc1` (stereo not drawn) [Compound 64, N-(3-(4-chlorophenyl)pyrrolidin-3-yl)-6-(trifluoromethoxy)pyridine-3-sulfonamide] and `CC(C)Oc1ccc(S(=O)(=O)NC2(c3ccc(Cl)cc3)CCNC2)cn1` (stereo not drawn) [Compound 80, N-(3-(4-chlorophenyl)pyrrolidin-3-yl)-6-isopropoxypyridine-3-sulfonamide] are within 1.5-fold of each other in GI50: 44.9 µM for the first, 50 µM for the second.

Compared with `CC(C)(C)OC(=O)N1CCC(NS(=O)(=O)c2ccc(OC(F)(F)F)cc2)(c2ccc(Cl)cc2)C1` (stereo not drawn) [Compound 70], `CC(C)CC(=O)N1CCC(NS(=O)(=O)c2ccc(OC(F)(F)F)cc2)(c2ccc(Cl)cc2)C1` (stereo not drawn) [Compound 81, N-(3-(4-chlorophenyl)-1-(3-methylbutanoyl)pyrrolidin-3-yl)-4-(trifluoromethoxy)benzenesulfonamide] is 2.1-fold higher in GI50: 21.7 µM for the first, 45.8 µM for the second.

First: O=S(=O)(N[C@@H]1CCN(C2CC2)[C@H]1c1ccc(F)c(F)c1)c1ccc(OC(F)(F)F)cc1 (racemic) [Compound 34]
Second: COc1ccc(Cl)cc1N1CCC(NS(=O)(=O)c2ccc(OC(F)(F)F)cc2)C1 (stereo not drawn) [Compound 2, N-(1-(5-chloro-2-methoxyphenyl)pyrrolidin-3-yl)-4-(trifluoromethoxy)benzene-sulfonamide]
The GI50 of the first is 2-fold lower: 33 µM for the first, 67.4 µM for the second.

`O=S(=O)(NC1CCCCC1Oc1ccc(F)cc1)c1ccc(OC(F)(F)F)cc1` (stereo not drawn) [Compound 7, N-(2-(4-fluorophenoxy)cyclohexyl)-4-(trifluoromethoxy)benzene-sulfonamide] and `O=S(=O)(NC1CCCCCC1c1ccccc1)c1ccc(OC(F)(F)F)cc1` (stereo not drawn) [Compound 13, N-(2-phenylcycloheptyl)-4-(trifluoromethoxy)benzene-sulfonamide] are within 1.5-fold of each other in GI50: 65.9 µM for the first, 55.6 µM for the second.

First: Cc1cc(C2(NS(=O)(=O)c3ccc(OC(F)(F)F)c(N)c3)CCNC2)ccc1F (stereo not drawn) [Compound 93, 3-amino-N-(3-(4-fluoro-3-methylphenyl)pyrrolidin-3-yl)-4-(trifluoromethoxy)benzenesulfonamide]
Second: O=S(=O)(NC1(c2cc(F)ccc2F)CCNCC1)c1ccc(OC(F)(F)F)cc1 [Compound 88, N-(4-(2,5-difluorophenyl)piperidin-4-yl)-4-(trifluoromethoxy)benzenesulfonamide]
The GI50 of the first is 1.8-fold higher: 65.5 µM for the first, 36.5 µM for the second.

`O=S(=O)(NC1(c2ccc(C(F)F)cc2)CCNCC1)c1ccc(OC(F)(F)F)cc1` [Compound 100, N-(4-(4-(difluoromethyl)phenyl)piperidin-4-yl)-4-(trifluoromethoxy)benzenesulfonamide] and `O=S(=O)(NC1(c2ccc(F)cc2)CCNCC1)c1ccc(OC(F)(F)F)cc1` [Compound 59, N-(4-(4-fluorophenyl)piperidin-4-yl)-4-(trifluoromethoxy)benzenesulfonamide] are within 1.5-fold of each other in GI50: 22.3 µM for the first, 18.1 µM for the second.

`COC(=O)[C@@H]1Cc2ccccc2[C@@H]1NS(=O)(=O)c1ccc(OC(F)(F)F)cc1` (racemic) [Compound 4] and `CCOC(=O)C1(NS(=O)(=O)c2ccc(OC(F)(F)F)cc2)CCc2ccccc21` (stereo not drawn) [Compound 20] are within 1.5-fold of each other in GI50: 40.4 µM for the first, 60 µM for the second.

Compared with `O=S(=O)(NC1(c2ncc(Cl)cc2F)CCNCC1)c1ccc(OC(F)(F)F)cc1` [Compound 95, N-(4-(5-chloro-3-fluoropyridin-2-yl)piperidin-4-yl)-4-(trifluoromethoxy)benzenesulfonamide], `O=S(=O)(NC1(c2ccc(Cl)s2)CCNCC1)c1ccc(OC(F)(F)F)cc1` [Compound 91, N-(4-(5-chlorothiophen-2-yl)piperidin-4-yl)-4-(trifluoromethoxy)benzenesulfonamide] is 4.8-fold lower in GI50: 45.8 µM for the first, 9.6 µM for the second.

First: O=S(=O)(NC1CCC2CN(Cc3ccccc3)CC21)c1ccc(OC(F)(F)F)cc1 (stereo not drawn) [Compound 22]
Second: O=S(=O)(NC1(c2ccccc2)CNC1)c1ccc(OC(F)(F)F)cc1 [Compound 46, N-(3-phenylazetidin-3-yl)-4-(trifluoromethoxy)benzenesulfonamide]
The GI50 of the first is lower: 70 µM for the first, at least 80 µM for the second.

`O=S(=O)(NC1CCN(c2cccc(Br)c2)C1)c1ccc(OC(F)(F)F)cc1` (stereo not drawn) [Compound 3] and `O=S(=O)(NC1CCN(c2cccc(OC(F)(F)F)c2)C1)c1ccc(OC(F)(F)F)cc1` (stereo not drawn) [Compound 6] are within 1.5-fold of each other in GI50: 77.1 µM for the first, 59.3 µM for the second.

`CC1CC(NS(=O)(=O)c2ccc(OC(F)(F)F)cc2)CCC1(C)C` (stereo not drawn) [Compound 8, 4-(trifluoromethoxy)-N-(3,4,4-trimethylcyclohexyl)benzene-sulfonamide] and `O=S(=O)(NC1Cc2[nH]ncc2C(C(F)(F)F)C1)c1ccc(OC(F)(F)F)cc1` (stereo not drawn) [Compound 26] are within 1.5-fold of each other in GI50: 73.3 µM for the first, 53 µM for the second.

Going from `CS(=O)(=O)N1CCC(NS(=O)(=O)c2ccc(OC(F)(F)F)cc2)(c2ccc(Cl)cc2)C1` (stereo not drawn) [Compound 72, N-(3-(4-chlorophenyl)-1-(methylsulfonyl)pyrrolidin-3-yl)-4-(trifluoromethoxy)benzenesulfonamide] to `O=S(=O)(NC1(c2ccc(Cl)cc2)CNC1)c1ccc(OC(F)(F)F)cc1` [Compound 47, N-(3-(4-chlorophenyl)azetidin-3-yl)-4-(trifluoromethoxy)benzenesulfonamide], the GI50 falls from 50.4 µM to 31.8 µM (1.6-fold).

`Cc1noc(C)c1S(=O)(=O)NCC1(NS(=O)(=O)c2ccc(OC(F)(F)F)cc2)CCCCC1` [Compound 33] and `COC(=O)C#CC1(NS(=O)(=O)c2ccc(OC(F)(F)F)cc2)CCCC1` [Compound 19] are within 1.5-fold of each other in GI50: 53 µM for the first, 43 µM for the second.

`COc1ccc(C2(NS(=O)(=O)c3ccc(OC(F)(F)F)cc3)CCOCC2)cc1F` [Compound 29, N-(4-(3-fluoro-4-methoxyphenyl)tetrahydro-2H-pyran-4-yl)-4-(trifluoromethoxy)benzene-sulfonamide] and `COc1cccc(C2(NS(=O)(=O)c3ccc(OC(F)(F)F)cc3)CCCC2)c1` [Compound 15] are within 1.5-fold of each other in GI50: 39 µM for the first, 49.2 µM for the second.

`O=C1C(NS(=O)(=O)c2ccc(OC(F)(F)F)cc2)CCCN1Cc1cccc(C(F)(F)F)c1` (stereo not drawn) [Compound 16] and `O=S(=O)(NC1CC2(CCCC2)Oc2ccccc21)c1ccc(OC(F)(F)F)cc1` (stereo not drawn) [Compound 18, N-(spiro[chromane-2,1′-cyclopentan]-4-yl)-4-(trifluoromethoxy)benzene-sulfonamide] are within 1.5-fold of each other in GI50: 34.4 µM for the first, 37.4 µM for the second.

`O=S(=O)(NC1(c2ccc(Cl)c(Cl)c2)CCN(Cc2ccccc2)C1)c1ccc(Oc2ccc(C(F)(F)F)cc2)cc1` (stereo not drawn) [Compound 55, N-(1-benzyl-3-(3,4-dichlorophenyl)pyrrolidin-3-yl)-4-(4-(trifluoromethyl)phenoxy)benzenesulfonamide] and `N=S(=O)(NC1(c2ccc(Cl)cc2)CCNC1)c1ccc(OC(F)(F)F)cc1` (stereo not drawn) [Compound 63, N-(3-(4-chlorophenyl)pyrrolidin-3-yl)-4-(trifluoromethoxy)benzenesulfonimidamide] are within 1.5-fold of each other in GI50: 38 µM for the first, 38.4 µM for the second.

`O=S(=O)(NC1CCc2c(Cl)cc(Cl)cc21)c1ccc(OC(F)(F)F)cc1` (stereo not drawn) [Compound 11, N-(4,6-dichloro-2,3-dihydro-1H-inden-1-yl)-4-(trifluoromethoxy)benzene-sulfonamide] and `CC(=O)Nc1ccc(S(=O)(=O)N2CCC(NS(=O)(=O)c3ccc(OC(F)(F)F)cc3)CC2)cc1` [Compound 1] are within 1.5-fold of each other in GI50: 44.2 µM for the first, 38.1 µM for the second.

`CN(C1(c2ccc(Cl)cc2)CCNC1)S(=O)(=O)c1ccc(OC(F)(F)F)cc1` (stereo not drawn) [Compound 85, N-(3-(4-chlorophenyl)pyrrolidin-3-yl)-N-methyl-4-(trifluoromethoxy)benzenesulfonamide] and `CN=S(=O)(NC1(c2ccc(Cl)cc2)CCNC1)c1ccc(OC(F)(F)F)cc1` (stereo not drawn) [Compound 68, N-(3-(4-chlorophenyl)pyrrolidin-3-yl)-N′-methyl-4-(trifluoromethoxy)benzenesulfonimidamide] are within 1.5-fold of each other in GI50: 33.5 µM for the first, 27.2 µM for the second.

With `CC(C)Oc1ccc(S(=O)(=O)NC2(c3ccc(Cl)cc3)CCNCC2)cn1` [Compound 67, N-(4-(4-chlorophenyl)piperidin-4-yl)-6-isopropoxypyridine-3-sulfonamide] the GI50 was 18.2 µM.

Reference: patent US20240174611A1 (Rappta Therapeutics Oy, priority 2021, published 2024)
